Assay results from patent US7128895B2, “Use of bile acid derivatives conjugated with metal ion chelated complexes for the diagnostic assessment of microvascular permeability” (Bracco Imaging S.p.A., priority 2000, dated 2006).
“Also recorded” adds a separate entry of the source.

Assay: Urinary and faecal excretion screening of an intravenously administered contrast agent
Type: in vivo
Details: rats
Method: Experimental Model for the Urinary and Faecal Excretion Screening of an Intravenously Administered Contrast Agent
The experimentation is performed on 6 rats.
The rats are individually housed in metabolic cages and urine and faeces are collected daily, for 7 days after administration. In particular faeces and urine are collected at the following time periods: 0 to 24 h,and every 24 hours up to 7 days.
The animals are killed by decapitation at 7 days post-dosing and animals blood is collected in heparinised test tubes and then centrifuged for 15 min at 3500·g to separate the plasma. After bleeding, liver, spleen, femurs and kidneys are collected and weighted to evaluate residual content of Gd in the organs. Residual gadolinium concentration in the organic samples is determined by inductively-coupled plasma atomic emission spectrometry (ICP-AES) with a Jobin-Yvon Mod 24 spectrometer
Excretion Screening of Rats Injected with B22956/1.
The screening is performed using the contrast compound as 0.25M solution. The agent in intravenously injected in 6 rats with single doses of 0.1 and 1.0 mmol·kg^−1 of animal body weight.

[1] = 0.1 mmol·kg^-1 intravenous, 7 days
[2] = 1.0 mmol·kg^-1 intravenous, 0 to 7 days
[3] = 1.0 mmol·kg^-1 intravenous, within 24 h after injection

cumulative urinary and faecal elimination within 7 days (0.1 mmol·kg^-1 intravenous): 94 to 102 % of the ID
average cumulative amount of gadolinium recovered in faeces [1]: 88.2±7.9 % of the injected dose (ID)
average cumulative amount of gadolinium recovered in urine [1]: 9.0±3.7 % of the ID
injected dose recovered in the faeces within 24 h (0.1 mmol·kg^-1 intravenous, within 24 h after injection): ~87 % of the injected dose
cumulative urinary and faecal elimination within 7 days (1.0 mmol·kg^-1 intravenous): 89 to 92 % of the ID
gadolinium recovered in faeces, cumulative amount [2]: 39.7±1.4 % of the ID
gadolinium recovered in urine, cumulative amount [2]: 52.7 % of the ID
injected dose recovered in the faeces within 24 h [3]: about 37 % of ID
injected dose recovered in the urine within 24 h [3]: ~48 % of the injected dose
residual Gd in the plasma as fraction of injected dose (7 days after administration, plasma volume taken as 40 mL/Kg): less than 0.04 % of the injected dose
Substance: gadolinium complex of the [3(S),5,12]-3-[[4-[bis[2-[bis(carboxymethyl)-amino]ethyl]amino]-4-carboxy-1-oxobutyl]amino]-12-hydroxycholan-24-oic acid [B22956/1]
residual Gd in plasma, liver, spleen, femurs and kidneys (7 days after 0.1 or 1.0 mmol·kg^-1): almost total absence of gadolinium residues; also recorded: very low or negligible
residual content of Gd in plasma (7 days, both administered doses, ICP-AES detection limit): < 0.05 μg gadolinium/mL
